From patent US20080318943A1, “Compounds and Uses Thereof - 848” (ASTRAZENECA AB, priority 2007, published 2008)

Columns and labels:
GABAA receptor α1β2γ2 = target: T1, GABAA receptor α1β2γ2 (Homo sapiens, UniProt P14867+P18507); test: Two-electrode voltage-clamp potentiation of GABA EC10 current in Xenopus oocytes, GABAA1; type: cell-based; conditions: percentage potentiation of GABA EC10 current divided by that of diazepam
T1 construct: expressed in transfected cells; host or cells: Xenopus laevis oocytes injected with cRNA
Method in brief: (§1)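 Human GABAA receptors expressed in Xenopus oocytes by cRNA injection (α:β:γ molar ratio ~1:1:10 for α1β2γ2, 1:1:1 for α2β3γ2), recorded 2-10 days later by two-electrode voltage clamp at −60 mV in ND-96, pH 7.5. Modulator preapplied 30 s before GABA at per-oocyte EC10. Peak-current percent potentiation over GABA alone, normalised to diazepam.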

[1] = target: T2, GABAA2 receptors (α2, β3, γ2 receptor subunits transfected into Sf9 cells) (Homo sapiens, UniProt P18507+P47869); test: GABAA2 Binding Method ([3H]-Flunitrazepam displacement); conditions: [3H]-Flunitrazepam ~2 nM, α2β3γ2 Sf9 membranes, 1 hr at 4° C.
T2 construct: host or cells: Sf9 cells (membranes)
Method in brief: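 Displacement of [3H]-flunitrazepam (~2 nM in assay) from recombinant human α2β3γ2 receptors in Sf9 membranes; 1 h incubation at 4 °C, harvest by filtration. Values reported as percent of control, IC50 and Ki.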

GABAA receptor α2β3γ2 = target: T3, GABAA receptor α2β3γ2 (Homo sapiens, UniProt P18507+P47869); test: Two-electrode voltage-clamp potentiation of GABA EC10 current in Xenopus oocytes, GABAA2; type: cell-based; conditions: percentage potentiation of GABA EC10 current divided by that of diazepam
T3 construct: expressed in transfected cells; host or cells: Xenopus laevis oocytes injected with cRNA
Method in brief: as §1

[2] = listed as 9-Amino-2-cyclobutyl-5-((P)-2-fluoro-6-methoxyphenyl)-2,3-dihydro-pyrrolo[3,4-b]
[3] = listed as 9-Amino-2-cyclobutyl-5-((M)-2-fluoro-6-methoxyphenyl)-2,3-dihydro-pyrrolo[3,4-b]

T2 sequence (P47869 29-451): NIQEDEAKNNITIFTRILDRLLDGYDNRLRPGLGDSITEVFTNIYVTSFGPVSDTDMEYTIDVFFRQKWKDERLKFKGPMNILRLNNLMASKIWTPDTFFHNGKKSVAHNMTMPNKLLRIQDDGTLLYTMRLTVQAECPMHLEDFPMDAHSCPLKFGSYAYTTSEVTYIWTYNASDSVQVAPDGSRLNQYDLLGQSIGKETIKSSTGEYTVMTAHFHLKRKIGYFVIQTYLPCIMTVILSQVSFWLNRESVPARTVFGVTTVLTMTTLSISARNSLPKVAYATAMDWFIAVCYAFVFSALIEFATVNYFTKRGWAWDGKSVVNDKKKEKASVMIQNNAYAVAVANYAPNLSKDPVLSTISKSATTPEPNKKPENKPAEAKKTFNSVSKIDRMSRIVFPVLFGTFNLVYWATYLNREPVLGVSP
T2 sequence (P28472 26-473 partner): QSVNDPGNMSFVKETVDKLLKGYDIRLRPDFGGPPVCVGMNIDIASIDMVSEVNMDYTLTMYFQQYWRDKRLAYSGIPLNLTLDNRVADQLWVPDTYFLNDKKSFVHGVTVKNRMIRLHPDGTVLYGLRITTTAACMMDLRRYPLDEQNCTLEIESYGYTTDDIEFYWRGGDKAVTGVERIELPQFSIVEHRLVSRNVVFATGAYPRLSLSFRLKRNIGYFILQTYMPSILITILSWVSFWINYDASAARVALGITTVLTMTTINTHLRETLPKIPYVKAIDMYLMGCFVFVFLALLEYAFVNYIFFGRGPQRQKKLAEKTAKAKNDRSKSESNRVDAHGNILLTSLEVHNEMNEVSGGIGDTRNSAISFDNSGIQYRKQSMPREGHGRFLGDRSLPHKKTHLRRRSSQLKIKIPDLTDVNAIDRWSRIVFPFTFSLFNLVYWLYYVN
T2 sequence (P18507 40-475): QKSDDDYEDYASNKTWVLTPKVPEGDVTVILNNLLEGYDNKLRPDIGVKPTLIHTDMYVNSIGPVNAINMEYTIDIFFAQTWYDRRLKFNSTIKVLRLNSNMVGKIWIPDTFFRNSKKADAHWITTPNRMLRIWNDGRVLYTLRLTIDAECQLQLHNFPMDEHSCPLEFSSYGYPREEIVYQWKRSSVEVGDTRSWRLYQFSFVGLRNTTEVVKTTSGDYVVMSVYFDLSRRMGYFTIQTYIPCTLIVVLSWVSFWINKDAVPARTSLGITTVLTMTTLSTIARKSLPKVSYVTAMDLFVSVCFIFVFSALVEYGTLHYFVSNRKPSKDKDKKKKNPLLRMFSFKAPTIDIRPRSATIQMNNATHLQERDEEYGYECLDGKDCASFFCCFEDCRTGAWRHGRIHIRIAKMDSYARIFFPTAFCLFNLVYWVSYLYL
T3 sequence (P47869 29-451): as the sequence (P47869 29-451) above
T3 sequence (P28472 26-473 partner): as the sequence (P28472 26-473 partner) above
T3 sequence (P18507 40-475): as the sequence (P18507 40-475) above
T1 sequence (P14867 28-456): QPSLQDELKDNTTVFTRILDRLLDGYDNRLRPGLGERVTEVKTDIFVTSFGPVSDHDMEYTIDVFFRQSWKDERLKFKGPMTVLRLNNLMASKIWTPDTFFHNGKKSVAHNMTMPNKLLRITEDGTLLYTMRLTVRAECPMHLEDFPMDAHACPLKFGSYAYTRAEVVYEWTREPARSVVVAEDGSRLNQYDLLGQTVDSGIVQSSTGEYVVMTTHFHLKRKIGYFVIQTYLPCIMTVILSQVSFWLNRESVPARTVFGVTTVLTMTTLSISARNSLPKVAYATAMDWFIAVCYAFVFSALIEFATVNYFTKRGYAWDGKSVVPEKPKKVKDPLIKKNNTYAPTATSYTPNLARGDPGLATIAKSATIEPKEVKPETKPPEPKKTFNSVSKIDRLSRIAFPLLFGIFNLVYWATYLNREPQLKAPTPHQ
T1 sequence (P47870 25-512 partner limits assumed): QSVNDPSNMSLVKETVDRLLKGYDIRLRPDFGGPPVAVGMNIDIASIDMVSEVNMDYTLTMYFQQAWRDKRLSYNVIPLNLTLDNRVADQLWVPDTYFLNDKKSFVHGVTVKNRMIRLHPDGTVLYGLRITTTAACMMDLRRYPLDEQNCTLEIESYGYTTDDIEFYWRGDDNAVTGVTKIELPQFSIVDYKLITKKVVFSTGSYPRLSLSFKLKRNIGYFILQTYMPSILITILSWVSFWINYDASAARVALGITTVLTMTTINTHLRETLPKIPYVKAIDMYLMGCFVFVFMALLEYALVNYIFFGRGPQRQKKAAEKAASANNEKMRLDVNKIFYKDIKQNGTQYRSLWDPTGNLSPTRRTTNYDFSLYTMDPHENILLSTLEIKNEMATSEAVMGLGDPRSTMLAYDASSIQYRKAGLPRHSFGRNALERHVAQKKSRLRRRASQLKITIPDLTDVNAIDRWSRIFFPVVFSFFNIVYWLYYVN
T1 sequence (P18507 40-475): as the sequence (P18507 40-475) above

SMILES	Relative Potentiation for GABAA1 (GABAA receptor α1β2γ2)	Ki [1]	Relative Potentiation for GABAA2 (GABAA receptor α2β3γ2)	Relative Potentiation for GABAA1 (GABAA receptor α1β2γ2; [2])	Relative Potentiation for GABAA2 (GABAA receptor α2β3γ2; [2])	Relative Potentiation for GABAA1 (GABAA receptor α1β2γ2; [3])	Relative Potentiation for GABAA2 (GABAA receptor α2β3γ2; [3])
Cc1ccc(-c2cccc3c(N)c4c(nc23)CN(C2CCC2)C4=O)cn1 [9-Amino-2-cyclobutyl-5-(6-methylpyridin-3-yl)-2,3-dihydropyrrolo[3,4-b]quinolin-1-one]	−0.13	4.44 nM	0.21				
COc1ncccc1-c1c(F)ccc2c(N)c3c(nc12)CN([C@H]1CCOC1)C3=O [Example 170, 9-Amino-6-fluoro-5-(2-methoxypyridin-3-yl)-2-(S)-tetrahydrofuran-3-yl-2,3-dihydropyrrolo[3,4-b]quinolin-1-one]	−0.14	5.68 nM	0.19				
Nc1c2c(nc3c(-c4cccnc4F)c(F)ccc13)CN(C1CCC1)C2=O [9-Amino-2-cyclobutyl-6-fluoro-5-(2-fluoropyridin-3-yl)-2,3-dihydropyrrolo[3,4-b]quinolin-1-one]	0.018	0.246 nM	0.19				
CCN1Cc2nc3c(-c4ccc(F)cc4OC)cccc3c(N)c2C1=O [Example 32, 9-Amino-2-ethyl-5-(4-fluoro-2-methoxyphenyl)-2,3-dihydropyrrolo[3,4-b]quinolin-1-one]	−0.05	22.1 nM	0.2				
CCCN1Cc2nc3c(-c4cc(F)ccc4OC)cccc3c(N)c2C1=O [9-amino-5-(5-fluoro-2-methoxyphenyl)-2-propyl-2,3-dihydro-1H-pyrrolo[3,4-b]quinolin-1-one]	0.19	80.3 nM	0.25				
N#Cc1cc(F)ccc1-c1cccc2c(N)c3c(nc12)CN(C1CCC1)C3=O [2-(9-Amino-2-cyclobutyl-1-oxo-2,3-dihydro-1H-pyrrolo[3,4-b]quinolin-5-yl)-5-fluorobenzonitrile]	−0.024	4.19 nM	0.11				
COc1ccc(F)c(-c2cccc3c(N)c4c(nc23)CN(C2CC2)C4=O)c1 [Example 60, 9-Amino-2-cyclopropyl-5-(2-fluoro-5-methoxyphenyl)-2,3-dihydropyrrolo[3,4-b]quinolin-1-one]	0.079	13.8 nM	0.33				
COc1ncc(-c2cccc3c(N)c4c(nc23)CN(C2CCC2)C4=O)cc1C [9-Amino-2-cyclobutyl-5-(6-methoxy-5-methylpyridin-3-yl)-2,3-dihydropyrrolo[3,4-b]quinolin-1-one]	0.029	4.61 nM	0.16				
CCN1Cc2nc3c(-c4ccc(F)c(OC)c4)cccc3c(N)c2C1=O [9-Amino-2-ethyl-5-(4-fluoro-3-methoxyphenyl)-2,3-dihydropyrrolo[3,4-b]quinolin-1-one]	0.09	25.5 nM	0.18				
COc1ccccc1-c1c(F)ccc2c(N)c3c(nc12)CN(C1CC1)C3=O [9-Amino-2-cyclopropyl-6-fluoro-5-(2-methoxyphenyl)-2,3-dihydropyrrolo[3,4-b]quinolin-1-one]	0.02	3.72 nM	0.2				
COc1ccc(CN2Cc3nc4c(-c5cccnc5OC)cccc4c(N)c3C2=O)cc1 [Example 3, 9-Amino-2-(4-methoxybenzyl)-5-(2-methoxypyridin-3-yl)-2,3-dihydropyrrolo[3,4-b]quinolin-1-one]	0.12	22 nM	0.68				
Nc1c2c(nc3c(-c4cc(F)ccc4F)cccc13)CN(C1CC1)C2=O [Example 112, 9-Amino-2-cyclopropyl-5-(2,5-difluorophenyl)-2,3-dihydropyrrolo[3,4-b]quinolin-1-one]	−0.034	6.83 nM	0.13				
CCCN1Cc2nc3c(-c4cc(C)nn4C)cccc3c(N)c2C1=O [9-amino-5-(1,3-dimethyl-1H-pyrazol-5-yl)-2-propyl-2,3-dihydro-1H-pyrrolo[3,4-b]quinolin-1-one]	0.49	21.5 nM	0.57				
COc1cccc(F)c1-c1cccc2c(N)c3c(nc12)CN(C1CCC1)C3=O (single isomer, unassigned) [Example 129, 9-Amino-2-cyclobutyl-5-((P)-2-fluoro-6-methoxyphenyl)-2,3-dihydropyrrolo[3,4-b]quinolin-1-one]		0.289 nM		−0.11	0.23		
COc1ccc(CN2Cc3nc4c(-c5c(F)cccc5OC)cccc4c(N)c3C2=O)cc1 [Example 1, 9-Amino-5-(2-fluoro-6-methoxyphenyl)-2-(4-methoxybenzyl)-2,3-dihydropyrrolo[3,4-b]quinolin-1-one]	−0.034	9.8 nM	0.2				
CCN1Cc2nc3c(-c4ccc(OC)nc4OC)c(F)ccc3c(N)c2C1=O [Example 26, 9-Amino-5-(2,6-dimethoxypyridin-3-yl)-2-ethyl-6-fluoro-2,3-dihydropyrrolo[3,4-b]quinolin-1-one]	0.062	8.96 nM	0.18				
CCCN1Cc2nc3c(-c4ccc(OC)cc4OC)cccc3c(N)c2C1=O [9-amino-5-(2,4-dimethoxyphenyl)-2-propyl-2,3-dihydro-1H-pyrrolo[3,4-b]quinolin-1-one]	0.25	49.8 nM	0.31				
CCN1Cc2nc3c(-c4cccnc4OC)cccc3c(N)c2C1=O [Example 19, 9-Amino-2-ethyl-5-(2-methoxypyridin-3-yl)-2,3-dihydropyrrolo[3,4-b]quinolin-1-one]	0.022	24.2 nM	0.28				
N#Cc1ccc(F)cc1-c1cccc2c(N)c3c(nc12)CN(C1CCC1)C3=O [2-(9-Amino-2-cyclobutyl-1-oxo-2,3-dihydro-1H-pyrrolo[3,4-b]quinolin-5-yl)-4-fluorobenzonitrile]	−0.02	6.2 nM	0.21				

More lines, now with the values ahead:

Relative Potentiation for GABAA1 (GABAA receptor α1β2γ2)	Ki [1]	Relative Potentiation for GABAA2 (GABAA receptor α2β3γ2)	Relative Potentiation for GABAA1 (GABAA receptor α1β2γ2; [2])	Relative Potentiation for GABAA2 (GABAA receptor α2β3γ2; [2])	Relative Potentiation for GABAA1 (GABAA receptor α1β2γ2; [3])	Relative Potentiation for GABAA2 (GABAA receptor α2β3γ2; [3])	SMILES
−0.11	4.36 nM	0.15					CCN1Cc2nc3c(-c4c(F)cccc4OC)cccc3c(N)c2C1=O [Example 17, 9-Amino-2-ethyl-5-(2-fluoro-6-methoxyphenyl)-2,3-dihydropyrrolo[3,4-b]quinolin-1-one]
0.17	50.6 nM	0.23					CCCN1Cc2nc3c(-c4cnc(OC)cc4C)cccc3c(N)c2C1=O [Example 12, 9-Amino-5-(6-methoxy-4-methylpyridin-3-yl)-2-propyl-2,3-dihydropyrrolo[3,4-b]quinolin-1-one]
0.088	55.3 nM	0.08					COc1ncc(-c2cccc3c(N)c4c(nc23)CN(C2CC2)C4=O)cc1C [9-amino-2-cyclopropyl-5-(6-methoxy-5-methylpyridin-3-yl)-2,3-dihydro-1H-pyrrolo[3,4-b]quinolin-1-one]
0.046	18.8 nM	0.26					COc1cccc(F)c1-c1cccc2c(N)c3c(nc12)CN(C)C3=O [Example 20, 9-Amino-5-(2-fluoro-6-methoxyphenyl)-2-methyl-2,3-dihydropyrrolo[3,4-b]quinolin-1-one]
−0.01	3.01 nM	0.3					COc1cccc(F)c1-c1cccc2c(N)c3c(nc12)CN(C1CCCC1)C3=O [9-Amino-2-cyclopentyl-5-(2-fluoro-6-methoxyphenyl)-2,3-dihydropyrrolo[3,4-b]quinolin-1-one]
−0.008	7.14 nM	0.036					CCN1Cc2nc3c(-c4ccc(OC)cc4F)cccc3c(N)c2C1=O [9-amino-2-ethyl-5-(2-fluoro-4-methoxyphenyl)-2,3-dihydro-1H-pyrrolo[3,4-b]quinolin-1-one]
	9.21 nM				0.002	0.23	COc1cccc(F)c1-c1cccc2c(N)c3c(nc12)CN(C1CCC1)C3=O (single isomer, unassigned) [Example 130, 9-Amino-2-cyclobutyl-5-((M)-2-fluoro-6-methoxyphenyl)-2,3-dihydropyrrolo[3,4-b]quinolin-1-one]
0.13	17.3 nM	0.22					CCCN1Cc2nc3c(-c4cccc(C)c4C)cccc3c(N)c2C1=O [Example 6, 9-Amino-5-(2,3-dimethylphenyl)-2-propyl-2,3-dihydropyrrolo[3,4-b]quinolin-1-one]
0.083	1 nM	0.41					COc1ccc(-c2c(F)ccc3c(N)c4c(nc23)CN(C2CCC2)C4=O)cc1OC [9-Amino-2-cyclobutyl-5-(3,4-dimethoxyphenyl)-6-fluoro-2,3-dihydropyrrolo[3,4-b]quinolin-1-one]
